Molecules are shown by their SMILES.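 48-hour exposure; five concentrations; linearly interpolated endpoints. TGI denotes the concentration required for complete inhibition of growth.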

The values below come from PubChem BioAssay (NCI).

Test systems include SR leukemia; UO-31 renal; PC-3 prostate; IGROV1 ovarian; OVCAR-3 ovarian; SF-268 CNS; HL-60(TB) leukemia; KM12 colon; NCI/ADR-RES ovarian; OVCAR-8 ovarian.
Common to all, as to assay: NCI anticancer screen, dose series, 48 h

Turning to `O=c1oc2ccccc2cc1-c1nc2ccc([N+](=O)[O-])cc2o1`, the TGI with SR leukemia, with UO-31 renal, with PC-3 prostate, in the assay on IGROV1 ovarian, in the assay with OVCAR-3 ovarian and in the assay on SF-268 CNS was more than 100 µM in each case. The TGI with HL-60(TB) leukemia, in the assay on KM12 colon, with NCI/ADR-RES ovarian and with OVCAR-8 ovarian was more than 100 µM throughout.
With `Cc1cs/c(=N\C(P(=O)(O)O)P(=O)(O)O)n1C`, the TGI in the assay on SR leukemia, in the assay on UO-31 renal, with PC-3 prostate, with IGROV1 ovarian, in the assay on OVCAR-3 ovarian and in the assay with SF-268 CNS was more than 100 µM in each case. In addition, the TGI in the assay with HL-60(TB) leukemia, in the assay on KM12 colon, with NCI/ADR-RES ovarian and in the assay with OVCAR-8 ovarian was more than 100 µM each time.
Take `CCOC(=O)c1cc(-c2ccc(OC)c(OC)c2)c[nH]1`: the TGI in the assay with SR leukemia, in the assay on UO-31 renal, with PC-3 prostate, in the assay on IGROV1 ovarian, in the assay with OVCAR-3 ovarian and with SF-268 CNS was more than 10 µM in each case. For the same compound, the TGI with HL-60(TB) leukemia, with KM12 colon, in the assay with NCI/ADR-RES ovarian and with OVCAR-8 ovarian was more than 10 µM each time.
Take `c1ccc2c(c1)CC1c3[nH]c4ccccc4c3CCN21` (stereo not given): the TGI in the assay on SR leukemia, in the assay with UO-31 renal, in the assay with PC-3 prostate, in the assay with IGROV1 ovarian, with OVCAR-3 ovarian and in the assay on SF-268 CNS was more than 10 µM in each case. Further, the TGI in the assay with HL-60(TB) leukemia, with KM12 colon, in the assay on NCI/ADR-RES ovarian and in the assay with OVCAR-8 ovarian was more than 10 µM in each case.
`CC1=NN(c2ccc(C)cc2)C2(C1)SCC(=O)N2c1nc2ccccc2s1` (stereo not given): the TGI is 28.1 µM in the assay with SR leukemia; more than 100 µM with UO-31 renal; 70.1 µM with PC-3 prostate; more than 100 µM in the assay with IGROV1 ovarian; 92.6 µM in the assay on OVCAR-3 ovarian; more than 100 µM with SF-268 CNS. For the same compound, the TGI is 36.5 µM with HL-60(TB) leukemia, more than 100 µM with KM12 colon, 76.2 µM in the assay with NCI/ADR-RES ovarian and more than 100 µM in the assay with OVCAR-8 ovarian.
With `CNc1ccc2nc(-c3ccc(OC(=O)N(C)C)cc3)cn2c1`, the TGI is 44.1 µM with SR leukemia; 35.4 µM in the assay on UO-31 renal; 29.5 µM in the assay with PC-3 prostate; 31.8 µM with IGROV1 ovarian; more than 100 µM in the assay with OVCAR-3 ovarian; 30 µM in the assay with SF-268 CNS. The TGI in the assay on HL-60(TB) leukemia amounted to 62.3 µM; with KM12 colon, 32.3 µM; with NCI/ADR-RES ovarian, 59.1 µM; in the assay on OVCAR-8 ovarian it was 30.3 µM.
As to `O=C(Cc1nc2ccc(C(=O)c3ccccc3)cc2[nH]c1=O)C(=O)Nc1ccccc1[N+](=O)[O-]`, the TGI in the assay on SR leukemia, in the assay with UO-31 renal, in the assay with PC-3 prostate, with IGROV1 ovarian, with OVCAR-3 ovarian and with SF-268 CNS was more than 100 µM in each case. For the same compound, the TGI in the assay with HL-60(TB) leukemia, with KM12 colon, in the assay with NCI/ADR-RES ovarian and with OVCAR-8 ovarian was more than 100 µM each time.
Regarding `CC(=O)N(C(C)=O)n1c(Cc2ccc(Cl)cc2)nn(C(C)=O)c1=O`, the TGI with SR leukemia, with UO-31 renal, in the assay with PC-3 prostate, in the assay with IGROV1 ovarian, with OVCAR-3 ovarian and with SF-268 CNS was more than 100 µM each time. Besides, the TGI in the assay on HL-60(TB) leukemia, in the assay with KM12 colon, with NCI/ADR-RES ovarian and in the assay with OVCAR-8 ovarian was more than 100 µM in each case.
Turning to `CCCCCCCCCCCCC(=O)NCC(=O)NC(Cc1ccccc1)C(=O)Oc1ccc([N+](=O)[O-])cc1` (stereo not given), the TGI in the assay with SR leukemia, with UO-31 renal, with PC-3 prostate, in the assay on IGROV1 ovarian, in the assay with OVCAR-3 ovarian and in the assay on SF-268 CNS was more than 100 µM each time. Moreover, the TGI in the assay on HL-60(TB) leukemia, in the assay with KM12 colon, in the assay with NCI/ADR-RES ovarian and in the assay on OVCAR-8 ovarian was more than 100 µM in each case.
